In PubChem BioAssay (NCI):
Several values for one entry are separate records, joined by “and”; a condition that tells them apart may be missing. Equal values may be shown once.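 Following 48 hours of exposure in 96-well plates, responses at five concentrations were used to interpolate endpoints linearly. GI50 = concentration required for 50% inhibition of growth. TGI: total growth inhibition.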

Columns and labels:
Assay in all cases: growth of human tumour cells (NCI), 48 h
OVCAR-3 ovarian = system: OVCAR-3 ovarian
MCF7 breast = system: MCF7 breast
IGROV1 ovarian = system: IGROV1 ovarian
EKVX NSCLC = system: EKVX NSCLC
MALME-3M melanoma = system: MALME-3M melanoma
HCC-2998 colon = system: HCC-2998 colon
K-562 leukemia = system: K-562 leukemia
NCI/ADR-RES ovarian = system: NCI/ADR-RES ovarian
MDA-MB-231 breast = system: MDA-MB-231 breast
OVCAR-4 ovarian = system: OVCAR-4 ovarian
M14 melanoma = system: M14 melanoma
CCRF-CEM leukemia = system: CCRF-CEM leukemia
U251 CNS = system: U251 CNS
OVCAR-5 ovarian = system: OVCAR-5 ovarian
LOX IMVI melanoma = system: LOX IMVI melanoma
HCT-15 colon = system: HCT-15 colon
SNB-75 CNS = system: SNB-75 CNS
RPMI-8226 leukemia = system: RPMI-8226 leukemia
NCI-H226 lung = system: NCI-H226 lung
NCI-H23 lung = system: NCI-H23 lung
SK-OV-3 ovarian = system: SK-OV-3 ovarian
UACC-257 melanoma = system: UACC-257 melanoma
HCT-116 colon = system: HCT-116 colon
SF-268 CNS = system: SF-268 CNS
SK-MEL-2 melanoma = system: SK-MEL-2 melanoma
OVCAR-8 ovarian = system: OVCAR-8 ovarian
SW-620 colon = system: SW-620 colon
MDA-MB-435 = system: MDA-MB-435
CAKI-1 renal = system: CAKI-1 renal
KM12 colon = system: KM12 colon
UACC-62 melanoma = system: UACC-62 melanoma
786-0 renal = system: 786-0 renal
SN12C renal = system: SN12C renal
NCI-H460 lung = system: NCI-H460 lung
NCI-H522 lung = system: NCI-H522 lung
PC-3 prostate = system: PC-3 prostate
COLO 205 colon = system: COLO 205 colon
SK-MEL-28 melanoma = system: SK-MEL-28 melanoma
HOP-62 NSCLC = system: HOP-62 NSCLC
SK-MEL-5 melanoma = system: SK-MEL-5 melanoma
A549 NSCLC = system: A549 NSCLC
UO-31 renal = system: UO-31 renal
HOP-92 NSCLC = system: HOP-92 NSCLC
T-47D breast = system: T-47D breast
HT29 colon = system: HT29 colon
SNB-19 CNS = system: SNB-19 CNS
SF-539 CNS = system: SF-539 CNS
TK-10 renal = system: TK-10 renal
SR leukemia = system: SR leukemia
DU-145 prostate = system: DU-145 prostate
MOLT-4 leukemia = system: MOLT-4 leukemia
ACHN renal = system: ACHN renal
A498 renal = system: A498 renal
BT-549 breast = system: BT-549 breast
HL-60(TB) leukemia = system: HL-60(TB) leukemia
RXF 393 renal = system: RXF 393 renal
SF-295 CNS = system: SF-295 CNS

With COc1cccc(OCCCN)c1-c1cc(Nc2cnc(C#N)cn2)n[nH]1 the GI50 (OVCAR-3 ovarian) was 7.61 nM and < 15.5 nM, the TGI (OVCAR-3 ovarian) was 11400 nM and the GI50 (MCF7 breast) was 3.04 nM. The TGI (MCF7 breast) was 18200 nM, the TGI (IGROV1 ovarian) was 15600 nM and the TGI (EKVX NSCLC) was 45600 nM. For the same compound, the TGI (MALME-3M melanoma) was 16100 nM, the GI50 (HCC-2998 colon) was 4.84 nM and the TGI (HCC-2998 colon) was 11200 nM. The GI50 (K-562 leukemia) was 4.44 nM, the TGI (K-562 leukemia) was 12800 nM and the GI50 (NCI/ADR-RES ovarian) was 71 nM and 54 nM. The TGI (NCI/ADR-RES ovarian) was 17300 nM, the GI50 (MDA-MB-231 breast) was 933 nM and the TGI (MDA-MB-231 breast) was 11900 nM. For the same compound, the GI50 (OVCAR-4 ovarian) was 7.93 nM and < 24.9 nM, the TGI (OVCAR-4 ovarian) was 14900 nM and the GI50 (M14 melanoma) was 2.76 nM. For the same compound, the TGI (M14 melanoma) was 13.5 nM, the TGI (CCRF-CEM leukemia) was > 73000 nM and the GI50 (U251 CNS) was 75.9 nM and 56.9 nM. The TGI (U251 CNS) was 14400 nM, the GI50 (OVCAR-5 ovarian) was 38.1 nM and 43 nM and the TGI (OVCAR-5 ovarian) was 15200 nM. The GI50 (LOX IMVI melanoma) was 16.6 nM and 25.4 nM, the TGI (LOX IMVI melanoma) was 9070 nM and the GI50 (HCT-15 colon) was 58.5 nM and 70 nM. The TGI (HCT-15 colon) was 14000 nM, the GI50 (SNB-75 CNS) was 2070 nM and the TGI (SNB-75 CNS) was 13900 nM. The GI50 (RPMI-8226 leukemia) was 197 nM and 48.9 nM, the TGI (RPMI-8226 leukemia) was 7590 nM and the GI50 (NCI-H226 lung) was 2230 nM. The TGI (NCI-H226 lung) was 8390 nM, the GI50 (NCI-H23 lung) was 4.79 nM and < 10.9 nM and the TGI (NCI-H23 lung) was 8880 nM. The GI50 (SK-OV-3 ovarian) was 4.74 nM, the TGI (SK-OV-3 ovarian) was 7020 nM and the GI50 (UACC-257 melanoma) was 142 nM. The TGI (UACC-257 melanoma) was 13100 nM, the GI50 (HCT-116 colon) was 105 nM and 236 nM and the TGI (HCT-116 colon) was 12900 nM. The GI50 (SF-268 CNS) was 87.1 nM and 75.4 nM, the TGI (SF-268 CNS) was 13200 nM and the GI50 (SK-MEL-2 melanoma) was 4.76 nM. For the same compound, the TGI (SK-MEL-2 melanoma) was 64.4 nM, the GI50 (OVCAR-8 ovarian) was 5.91 nM and the TGI (OVCAR-8 ovarian) was 1440 nM. The GI50 (SW-620 colon) was 57.3 nM and 54 nM, the TGI (SW-620 colon) was 12000 nM and the GI50 (MDA-MB-435) was 4.23 nM. The TGI (MDA-MB-435) was 1230 nM, the GI50 (CAKI-1 renal) was 405 nM and 45.5 nM and the TGI (CAKI-1 renal) was 11900 nM. For the same compound, the GI50 (KM12 colon) was 17.9 nM and 17 nM, the TGI (KM12 colon) was 11100 nM and the GI50 (UACC-62 melanoma) was 23.1 nM. For the same compound, the GI50 (786-0 renal) was 3.28 nM, the TGI (786-0 renal) was 706 nM and the GI50 (SN12C renal) was 189 nM and 130 nM. For the same compound, the TGI (SN12C renal) was 10800 nM, the GI50 (NCI-H460 lung) was 48.7 nM and 43.6 nM and the TGI (NCI-H460 lung) was 12600 nM. The GI50 (NCI-H522 lung) was 261 nM and 45.4 nM, the TGI (NCI-H522 lung) was 2060 nM and the GI50 (PC-3 prostate) was 2410 nM. The TGI (PC-3 prostate) was 21500 nM, the GI50 (COLO 205 colon) was 41.9 nM and 67.7 nM and the TGI (COLO 205 colon) was 11200 nM. For the same compound, the GI50 (SK-MEL-28 melanoma) was 955 nM and 3110 nM, the TGI (SK-MEL-28 melanoma) was 17400 nM and the GI50 (HOP-62 NSCLC) was 13.6 nM and 30.3 nM. For the same compound, the TGI (HOP-62 NSCLC) was 13000 nM, the GI50 (SK-MEL-5 melanoma) was 31.8 nM and 22.4 nM and the TGI (SK-MEL-5 melanoma) was 1590 nM. The GI50 (A549 NSCLC) was 35 nM and 45.2 nM, the TGI (A549 NSCLC) was 15100 nM and the GI50 (UO-31 renal) was 27.9 nM and 32.1 nM. The GI50 (HOP-92 NSCLC) was < 16.6 nM, the TGI (HOP-92 NSCLC) was 8760 nM and the GI50 (T-47D breast) was 7910 nM. For the same compound, the TGI (T-47D breast) was 24000 nM, the GI50 (HT29 colon) was 28.9 nM and 23.8 nM and the TGI (HT29 colon) was 1280 nM. The GI50 (SNB-19 CNS) was 18.8 nM and 25.6 nM, the TGI (SNB-19 CNS) was 19500 nM and the GI50 (SF-539 CNS) was 3.66 nM. For the same compound, the TGI (SF-539 CNS) was 62.7 nM and 120 nM, the GI50 (TK-10 renal) was 6.5 nM and the TGI (TK-10 renal) was 417 nM. For the same compound, the GI50 (SR leukemia) was 3.2 nM, the TGI (SR leukemia) was 1250 nM and the GI50 (DU-145 prostate) was 7.69 nM and 13.1 nM. The TGI (DU-145 prostate) was 15400 nM, the GI50 (MOLT-4 leukemia) was 3.91 nM and the TGI (MOLT-4 leukemia) was 5690 nM. For the same compound, the GI50 (ACHN renal) was 3.32 nM, the TGI (ACHN renal) was 14.6 nM and the GI50 (A498 renal) was 4.76 nM. The TGI (A498 renal) was 230 nM and < 26.9 nM, the GI50 (BT-549 breast) was 79.7 nM and 85.6 nM and the TGI (BT-549 breast) was 8200 nM. The GI50 (HL-60(TB) leukemia) was 8.77 nM and 23.1 nM, the TGI (HL-60(TB) leukemia) was 1140 nM and the GI50 (RXF 393 renal) was 4.96 nM. For the same compound, the TGI (RXF 393 renal) was 61.6 nM and 156 nM, the GI50 (SF-295 CNS) was 3.7 nM and the TGI (SF-295 CNS) was 13400 nM.
